This series deals with mice. In words: Kidney toxicity (2) determined by blood examination. It is filed as in vivo, mouse. To be noted: average of eight mice; for Creatinine in serum: None: 0.8; for Urea nitrogen in serum: None: 23; for Glucose in serum: None: 93. Here is the method: (4) Kidney toxicity (2) determined by blood examination:
The dosage per kg of body weight of mouse was 150, 400 mg and 100 mg.
After lapse of one day from the administration, the mice were fasted (only water was given) and then, after 15 hours, blood was collected and serum was obtained therefrom. Glucose, urea nitrogen and creatinine in the serum were examined by clinical examination reagent (trademark : FUJI DRYCHEMSLIDE manufactured by Fuji Photo Film Co., Ltd.). The results are shown by average value of eight mice in Table 4.

For `COC(=O)c1cc(C(=O)OC)c2c(n1)C(=O)C(=O)c1cc(C(=O)OC)[nH]c1-2` [PQQ trimethyl ester], the Creatinine in serum came out at 0.9 mg/dL (150 mg/kg), 0.7 mg/dL (400 mg/kg) and 0.7 mg/dL (1000 mg/kg). The “Urea nitrogen in serum” value is, setting by setting: (150 mg/kg) 22 mg/dL; (400 mg/kg) 20 mg/dL; (1000 mg/kg) 17 mg/dL. In addition, the Glucose in serum was 72 mg/dL (150 mg/kg), 55 mg/dL (400 mg/kg) and 60 mg/dL (1000 mg/kg).

Source of the values: US5061711A, “Method of curing liver diseases by using pyrrolo quinoline quinone triesters and novel pyrrolo quinoline quinone triesters” (Mitsubishi Gas Chemical Company, Inc., priority 1989, dated 1991).
